The results in this text go back to patent US12139520B2 (priority 2020, dated 2024).

Numbered stars: 1 amine (or outer) side, 2 acyl side, 3 side chain; on linkers, the order of the positions; unused ones are H or OH. Bridge positions count the residues as written; N and C are the ends. Square brackets hold non-standard residues; d marks the D form. Peptide text beside a SMILES is read from it. * marks the point of attachment. C20 diacid = O=C(O)CCCCCCCCCCCCCCCCCCC(=O)*; γGlu = O=C(O)[C@H](CCC(=O)[*:2])N[*:1]; Hyp = O=C(O)[C@@H]1C[C@@H](O)CN1

One test addresses T1, hAMY3 receptor (Homo sapiens, UniProt O60896+P30988).
T1 sequence (P30988 25-474): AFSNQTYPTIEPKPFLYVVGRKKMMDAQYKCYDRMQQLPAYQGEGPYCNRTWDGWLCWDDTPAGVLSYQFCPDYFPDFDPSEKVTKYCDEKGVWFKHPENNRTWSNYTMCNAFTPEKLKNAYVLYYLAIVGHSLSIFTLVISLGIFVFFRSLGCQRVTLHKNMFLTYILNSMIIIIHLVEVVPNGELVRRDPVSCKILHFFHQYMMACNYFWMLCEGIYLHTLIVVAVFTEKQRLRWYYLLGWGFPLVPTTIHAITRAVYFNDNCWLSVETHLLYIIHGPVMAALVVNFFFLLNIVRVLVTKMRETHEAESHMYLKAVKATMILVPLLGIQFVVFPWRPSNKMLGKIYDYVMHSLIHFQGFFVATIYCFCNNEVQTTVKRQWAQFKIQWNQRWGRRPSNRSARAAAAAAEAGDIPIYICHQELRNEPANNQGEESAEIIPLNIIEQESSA
T1 sequence (O60896 24-148 partner): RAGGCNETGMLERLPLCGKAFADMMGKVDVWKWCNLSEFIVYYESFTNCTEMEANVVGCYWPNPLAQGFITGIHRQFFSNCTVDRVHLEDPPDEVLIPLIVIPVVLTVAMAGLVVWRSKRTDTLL
Put plainly: cAMP assay for in vitro receptor activation, hAMY3-R. The class given is cell-based. The conditions noted are these: cAMP assay, hAMY3 receptor; read-out: hAMY3R EC50. Summed up:
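Receptor activation was measured as cAMP accumulation in a monoclonal cell line stably overexpressing hAMY3. Stimulation with graded doses lasted 30 min at room temperature in the presence of 0.5 mM IBMX, with human amylin as positive control.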

Another test deals with hAM1 receptor (Homo sapiens, UniProt O60895+Q16602). Briefly: cAMP assay for in vitro receptor activation, hAM1-R. The test is classed as cell-based. The conditions noted are these: cAMP assay, hAM1 receptor; read-out: hAM1R EC50. Summed up:
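Read-out is intracellular cAMP as a measure of receptor activation. Cells stably overexpressing hAM1 were subcloned to a monoclonal line, then thawed and seeded at 8000 cells/well in DPBS with 0.05% casein and the phosphodiesterase inhibitor IBMX at 0.5 mM.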

Sequence of hAM1 receptor (Q16602 23-461): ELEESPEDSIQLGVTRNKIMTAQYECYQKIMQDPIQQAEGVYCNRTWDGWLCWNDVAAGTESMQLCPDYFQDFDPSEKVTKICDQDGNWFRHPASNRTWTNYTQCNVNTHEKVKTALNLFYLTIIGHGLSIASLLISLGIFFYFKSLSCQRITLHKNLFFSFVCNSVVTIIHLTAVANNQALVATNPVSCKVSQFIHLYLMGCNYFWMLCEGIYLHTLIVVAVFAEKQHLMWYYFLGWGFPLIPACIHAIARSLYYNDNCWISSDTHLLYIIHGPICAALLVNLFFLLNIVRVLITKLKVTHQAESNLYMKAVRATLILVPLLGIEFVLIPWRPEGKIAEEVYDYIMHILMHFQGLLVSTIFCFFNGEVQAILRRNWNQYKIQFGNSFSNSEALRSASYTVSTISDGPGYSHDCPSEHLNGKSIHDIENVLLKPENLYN
Sequence of hAM1 receptor (O60895 43-175 partner): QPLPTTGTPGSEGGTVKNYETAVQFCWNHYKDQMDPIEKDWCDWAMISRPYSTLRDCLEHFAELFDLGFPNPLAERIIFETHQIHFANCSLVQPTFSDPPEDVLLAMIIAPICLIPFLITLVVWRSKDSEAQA

Usually EC50 stands for the concentration at which the effect is half-maximal. Turning to `CC[C@H](C)[C@H](NC(=O)[C@H](C)NC(=O)CNC(=O)[C@H](Cc1ccccc1)NC(=O)[C@H](CC(N)=O)NC(=O)[C@H](CC(N)=O)NC(=O)[C@H](CO)NC(=O)[C@H](CO)NC(=O)[C@H](Cc1c[nH]cn1)NC(=O)[C@@H](NC(=O)[C@H](CC(C)C)NC(=O)[C@H](Cc1ccccc1)NC(=O)[C@H](CC(N)=O)NC(=O)[C@H](C)NC(=O)[C@H](CC(C)C)NC(=O)[C@H](CCCNC(=N)N)NC(=O)[C@H](CCC(N)=O)NC(=O)[C@@H](NC(=O)[C@H](C)NC(=O)[C@@H]1CSSC[C@H](NC(=O)[C@@H](N)CCCCN)C(=O)N[C@@H](CC(N)=O)C(=O)N[C@@H]([C@@H](C)O)C(=O)N[C@@H](C)C(=O)N[C@@H]([C@@H](C)O)C(=O)N1)[C@@H](C)O)C(C)C)C(=O)N[C@@H](CC(C)C)C(=O)N1CCC[C@H]1C(=O)N[C@@H](CO)C(=O)N[C@H](C(=O)N[C@@H](CCCCN)C(=O)N[C@H](C(=O)NCC(=O)N[C@@H](CO)C(=O)N[C@@H](CC(N)=O)C(=O)NCC(=O)N[C@@H](Cc1ccc(O)cc1)C(N)=O)C(C)C)[C@@H](C)O` [compound 59] (H-KCNTATCATQRLANFLVHSSNNFGAILPSTKVGSNGY-NH2; disulfide 2-7), the 50% effective concentration (EC50) is 0.012 nM at hAMY3 receptor and over 5000 nM on hAM1 receptor.
For `CC[C@H](C)[C@H](NC(=O)[C@H](CCC(N)=O)NC(=O)[C@H](Cc1c[nH]cn1)NC(=O)[C@H](C)NC(=O)[C@H](CC(C)C)NC(=O)[C@H](CCCNC(=N)N)NC(=O)[C@H](CCC(N)=O)NC(=O)[C@@H](NC(=O)[C@@H](NC(=O)[C@@H]1CSSC[C@H](NC(=O)[C@H](CCCCN)NC(=O)CC[C@H](NC(=O)CCCCCCCCCCCCCCCCCCC(=O)O)C(=O)O)C(=O)N[C@@H](CC(N)=O)C(=O)N[C@@H]([C@@H](C)O)C(=O)N[C@@H](C)C(=O)N[C@@H]([C@@H](C)O)C(=O)N1)[C@@H](C)O)C(C)C)C(=O)N[C@@H](C)C(=O)N[C@@H](CCC(N)=O)C(=O)N[C@@H](Cc1ccccc1)C(=O)N[C@H](C(=O)N[C@@H](CC(=O)O)C(=O)N[C@@H](CCCCN)C(=O)N[C@@H](CC(=O)O)C(=O)N[C@@H](CCCCN)C(=O)N[C@@H](CC(=O)O)C(=O)N[C@@H](CC(N)=O)C(=O)N[C@H](C(=O)N[C@@H](C)C(=O)N1CCC[C@H]1C(=O)N1CCC[C@H]1C(=O)N[C@H](C(=O)N[C@@H](CC(N)=O)C(=O)N[C@H](C(=O)NCC(=O)N[C@@H](CO)C(=O)N[C@@H](CC(N)=O)C(=O)NCC(=O)N1C[C@H](O)C[C@H]1C(N)=O)C(C)C)[C@@H](C)O)C(C)C)[C@@H](C)O` [compound 61] ({C20 diacid-γGlu}-KCNTATCTVQRLAHQIAQFTDKDKDNVAPPTNVGSNG[Hyp]-NH2; disulfide 2-7) the same measures were 0.012 nM and over 5000 nM.
On to `CC[C@H](C)[C@H](NC(=O)[C@H](CCC(N)=O)NC(=O)[C@H](Cc1c[nH]cn1)NC(=O)[C@H](C)NC(=O)[C@H](CC(C)C)NC(=O)[C@H](CCCNC(=N)N)NC(=O)[C@H](CCC(N)=O)NC(=O)[C@@H](NC(=O)[C@@H](NC(=O)[C@@H]1CSSC[C@H](NC(=O)[C@H](CCCCN)NC(=O)CC[C@H](NC(=O)CCCCCCCCCCCCCCCCCCC(=O)O)C(=O)O)C(=O)N[C@@H](CC(N)=O)C(=O)N[C@@H]([C@@H](C)O)C(=O)N[C@@H](CO)C(=O)N[C@@H]([C@@H](C)O)C(=O)N1)[C@@H](C)O)C(C)C)C(=O)N[C@@H](C)C(=O)N[C@@H](CCC(N)=O)C(=O)N[C@@H](Cc1ccccc1)C(=O)N[C@H](C(=O)N[C@@H](CC(=O)O)C(=O)N[C@@H](CCCCN)C(=O)N[C@@H](CC(=O)O)C(=O)N[C@@H](CCCCN)C(=O)N[C@@H](CC(=O)O)C(=O)N[C@@H](CC(N)=O)C(=O)N[C@H](C(=O)N[C@@H](C)C(=O)N1CCC[C@H]1C(=O)N1CCC[C@H]1C(=O)N[C@H](C(=O)N[C@@H](CC(N)=O)C(=O)N[C@H](C(=O)NCC(=O)N[C@@H](CO)C(=O)N[C@@H](CC(N)=O)C(=O)NCC(=O)N1C[C@H](O)C[C@H]1C(N)=O)C(C)C)[C@@H](C)O)C(C)C)[C@@H](C)O` [compound 62] ({C20 diacid-γGlu}-KCNTSTCTVQRLAHQIAQFTDKDKDNVAPPTNVGSNG[Hyp]-NH2; disulfide 2-7), for which the concentration for a half-maximal effect (EC50) was 0.012 nM at hAMY3 receptor and over 5000 nM on hAM1 receptor.
For `CC[C@H](C)[C@H](NC(=O)[C@H](CCC(N)=O)NC(=O)[C@H](CCC(=O)O)NC(=O)[C@H](C)NC(=O)[C@H](CC(C)C)NC(=O)[C@H](CCCNC(=N)N)NC(=O)[C@H](CCC(N)=O)NC(=O)[C@@H](NC(=O)[C@@H](NC(=O)[C@@H]1CSSC[C@H](NC(=O)[C@H](CCCCN)NC(=O)CC[C@H](NC(=O)CCCCCCCCCCCCCCCCCCC(=O)O)C(=O)O)C(=O)N[C@@H](CC(N)=O)C(=O)N[C@@H]([C@@H](C)O)C(=O)N[C@@H](C)C(=O)N[C@@H]([C@@H](C)O)C(=O)N1)[C@@H](C)O)C(C)C)C(=O)N[C@@H](Cc1ccc(O)cc1)C(=O)N[C@@H](CCC(N)=O)C(=O)N[C@@H](Cc1ccccc1)C(=O)N[C@H](C(=O)N[C@@H](CC(=O)O)C(=O)N[C@@H](CCCCN)C(=O)N[C@@H](CC(=O)O)C(=O)N[C@@H](CCCCN)C(=O)N[C@@H](CC(=O)O)C(=O)N[C@@H](CC(N)=O)C(=O)N[C@H](C(=O)N[C@@H](C)C(=O)N1CCC[C@H]1C(=O)N1CCC[C@H]1C(=O)N[C@H](C(=O)N[C@@H](C)C(=O)N[C@H](C(=O)NCC(=O)N[C@@H](CO)C(=O)N[C@@H](CC(N)=O)C(=O)NCC(=O)N1C[C@H](O)C[C@H]1C(N)=O)C(C)C)[C@@H](C)O)C(C)C)[C@@H](C)O` [compound 63] ({C20 diacid-γGlu}-KCNTATCTVQRLAEQIYQFTDKDKDNVAPPTAVGSNG[Hyp]-NH2; disulfide 2-7), in that order: 0.012 nM and over 5000 nM.
Regarding `CC[C@H](C)[C@H](NC(=O)[C@H](CCC(N)=O)NC(=O)[C@H](CCC(=O)O)NC(=O)[C@H](C)NC(=O)[C@H](CC(C)C)NC(=O)[C@H](CCCNC(=N)N)NC(=O)[C@H](CCC(N)=O)NC(=O)[C@@H](NC(=O)[C@@H](NC(=O)[C@@H]1CSSC[C@H](NC(=O)[C@@H](N)CCCCN)C(=O)N[C@@H](CC(N)=O)C(=O)N[C@@H]([C@@H](C)O)C(=O)N[C@@H](C)C(=O)N[C@@H]([C@@H](C)O)C(=O)N1)[C@@H](C)O)C(C)C)C(=O)N[C@@H](Cc1ccc(O)cc1)C(=O)N[C@@H](CCC(N)=O)C(=O)N[C@@H](Cc1ccccc1)C(=O)N[C@H](C(=O)N[C@@H](CC(=O)O)C(=O)N[C@@H](CCCCN)C(=O)N[C@@H](CC(=O)O)C(=O)N[C@@H](CCCCN)C(=O)N[C@@H](CC(=O)O)C(=O)N[C@@H](CC(N)=O)C(=O)N[C@H](C(=O)N[C@@H](CO)C(=O)N1CCC[C@H]1C(=O)N1CCC[C@H]1C(=O)N[C@H](C(=O)N[C@@H](CC(N)=O)C(=O)N[C@H](C(=O)NCC(=O)N[C@@H](CO)C(=O)N[C@@H](CC(N)=O)C(=O)NCC(=O)N1C[C@H](O)C[C@H]1C(N)=O)C(C)C)[C@@H](C)O)C(C)C)[C@@H](C)O` [compound 66] (H-KCNTATCTVQRLAEQIYQFTDKDKDNVSPPTNVGSNG[Hyp]-NH2; disulfide 2-7), the EC50 at hAMY3 receptor is 0.012 nM; on hAM1 receptor, over 5000 nM.
For `CC[C@H](C)[C@H](NC(=O)[C@H](CCC(N)=O)NC(=O)[C@H](Cc1c[nH]cn1)NC(=O)[C@H](C)NC(=O)[C@H](CC(C)C)NC(=O)[C@H](CCCNC(=N)N)NC(=O)[C@H](CCC(N)=O)NC(=O)[C@@H](NC(=O)[C@@H](NC(=O)[C@@H]1CSSC[C@H](NC(=O)[C@H](CCCCN)NC(=O)CC[C@H](NC(=O)CCCCCCCCCCCCCCCCCCC(=O)O)C(=O)O)C(=O)N[C@@H](CC(N)=O)C(=O)N[C@@H](Cc2ccccc2)C(=O)N[C@@H](C)C(=O)N[C@@H]([C@@H](C)O)C(=O)N1)[C@@H](C)O)C(C)C)C(=O)N[C@@H](Cc1ccc(O)cc1)C(=O)N[C@@H](CCC(N)=O)C(=O)N[C@@H](Cc1ccccc1)C(=O)N[C@H](C(=O)N[C@@H](CC(=O)O)C(=O)N[C@@H](CCCCN)C(=O)N[C@@H](CC(=O)O)C(=O)N[C@@H](CCCCN)C(=O)N[C@@H](CC(=O)O)C(=O)N[C@@H](CC(N)=O)C(=O)N[C@H](C(=O)N[C@@H](C)C(=O)N1CCC[C@H]1C(=O)N[C@@H](CCCNC(=N)N)C(=O)N[C@H](C(=O)N[C@@H](CCC(=O)O)C(=O)N[C@H](C(=O)NCC(=O)N[C@@H](CO)C(=O)N[C@@H](CC(N)=O)C(=O)NCC(=O)N1C[C@H](O)C[C@H]1C(N)=O)C(C)C)[C@@H](C)O)C(C)C)[C@@H](C)O` [compound 67] ({C20 diacid-γGlu}-KCNFATCTVQRLAHQIYQFTDKDKDNVAPRTEVGSNG[Hyp]-NH2; disulfide 2-7) the same measures were 0.013 nM and 116 nM.
